Several values for one entry are separate records, joined by “and”; a condition that tells them apart may be missing. Equal values may be shown once.
Experiment: Blood sampling for THC and CBD plasma concentration after single oral dosing
Details: for concentration at 12 h: 12 hours post administration; for AUC: AUC for CBD concentration, canine
Description: Two compositions, IVP1 and IVP2, were administered in varying amounts in the study.
Dosage volumes were calculated prior to Day 0, to provide the target dosage in mg/kg bodyweight based on actual dog bodyweights and IVP active ingredient composition based on the Certificates of Analysis.
Blood samples of approximately 5 mL were collected at each drug concentration sampling time-point from each animal using 22-gauge needles and 5 mL syringes.
The data points from Table 4 and Table 5 were also plotted and these graphs are set out in FIGS. 1-16.

`C=C(C)[C@@H]1CCC(C)=C[C@H]1c1c(O)cc(CCCCC)cc1O` [CBD, Cannabidiol] gave a concentration at 32 h (dog, plasma, oral, CBD concentration in blood plasma, mean of dogs 5-8, 0.24 mg/kg CBD + 0.12 mg/kg THC oral once, 32 h) of 0.34 ng/mL, a concentration at 48 h (dog, plasma, oral, CBD concentration in blood plasma, mean of dogs 5-8, 0.24 mg/kg CBD + 0.12 mg/kg THC oral once, 48 h) of 0.13 ng/mL and a concentration at 72 h (dog, plasma, oral, CBD concentration in blood plasma, mean of dogs 5-8, 0.24 mg/kg CBD + 0.12 mg/kg THC oral once, 72 h) of 0 ng/mL. For the same molecule, the concentration at 16 h (dog, plasma, oral, CBD concentration recorded in subjects, 16 hours post administration) was 0.26 ng/mL, the concentration at 32 h (dog, plasma, oral, CBD concentration recorded in subjects, 32 hours post administration) was 0.28 ng/mL and the concentration at 12 h (dog, plasma, oral, highest level of CBD recorded) was 0.88 ng/mL. For the same molecule, the concentration at 12 h (dog, plasma, oral, lowest level of CBD recorded in a subject) was 0.23 ng/mL, the half-life (dog, plasma, po) was 12.6 h and the AUC (dog, plasma, po, 0.12 mg/kg, 0.12 mg/kg CBD in combination with 0.24 mg/kg THC) was 30 to 50 ng·h/mL. For the same molecule, the Cmax (dog, plasma, po, 0.24 mg/kg) was 5 to 69 ng/mL, the AUC (dog, plasma, po, 0.24 mg/kg, 0.24 mg/kg CBD in combination with 0.12 mg/kg THC) was 95 to 110 ng·h/mL and the “CBD concentration in blood plasma” value (individual dogs 1-4, 0.12 mg/kg CBD + 0.24 mg/kg THC oral once, 0 h) was 0 ng/mL. The “CBD concentration in blood plasma” value (individual dogs 1-4, 0.12 mg/kg CBD + 0.24 mg/kg THC oral once, 0.67 h) was 15.60 ng/mL and 18.10 ng/mL and 5.26 ng/mL and 10.10 ng/mL, the “CBD concentration in blood plasma” value (individual dogs 1-4, 0.12 mg/kg CBD + 0.24 mg/kg THC oral once, 1 h) was 12.00 ng/mL and 13.60 ng/mL and 5.99 ng/mL and 13.10 ng/mL and the “CBD concentration in blood plasma” value (individual dogs 1-4, 0.12 mg/kg CBD + 0.24 mg/kg THC oral once, 1.5 h) was 7.99 ng/mL and 9.07 ng/mL and 9.84 ng/mL. The “CBD concentration in blood plasma” value (individual dogs 1-4, 0.12 mg/kg CBD + 0.24 mg/kg THC oral once, 2 h) was 4.48 ng/mL and 8.08 ng/mL and 8.72 ng/mL, the “CBD concentration in blood plasma” value (individual dogs 1-4, 0.12 mg/kg CBD + 0.24 mg/kg THC oral once, 3 h) was 2.83 ng/mL and 2.33 ng/mL and 5.83 ng/mL and 6.25 ng/mL and the “CBD concentration in blood plasma” value (individual dogs 1-4, 0.12 mg/kg CBD + 0.24 mg/kg THC oral once, 4 h) was 1.95 ng/mL and 1.24 ng/mL and 4.08 ng/mL and 4.31 ng/mL. The “CBD concentration in blood plasma” value (individual dogs 1-4, 0.12 mg/kg CBD + 0.24 mg/kg THC oral once, 6 h) was 1.56 ng/mL and 0.76 ng/mL and 2.99 ng/mL and 2.75 ng/mL, the “CBD concentration in blood plasma” value (individual dogs 1-4, 0.12 mg/kg CBD + 0.24 mg/kg THC oral once, 8 h) was 1.12 ng/mL and 0.53 ng/mL and 1.23 ng/mL and 2.32 ng/mL and the “CBD concentration in blood plasma” value (individual dogs 1-4, 0.12 mg/kg CBD + 0.24 mg/kg THC oral once, 12 h) was 0.48 ng/mL and 0.23 ng/mL and 0.37 ng/mL and 0.55 ng/mL. For the same molecule, the “CBD concentration in blood plasma” value (individual dogs 1-4, 0.12 mg/kg CBD + 0.24 mg/kg THC oral once, 16 h) was 0.00 ng/mL (2×) and 0.26 ng/mL and 0.36 ng/mL, the “CBD concentration in blood plasma” value (individual dogs 1-4, 0.12 mg/kg CBD + 0.24 mg/kg THC oral once, 24 h) was 0.00 ng/mL and 0.23 ng/mL and the “CBD concentration in blood plasma” value (individual dogs 5-8, 0.24 mg/kg CBD + 0.12 mg/kg THC oral once, 0 h) was 0 ng/mL. For the same molecule, the “CBD concentration in blood plasma” value (individual dogs 5-8, 0.24 mg/kg CBD + 0.12 mg/kg THC oral once, 0.67 h) was 28.70 ng/mL and 28.10 ng/mL and 10.20 ng/mL and 53.40 ng/mL, the “CBD concentration in blood plasma” value (individual dogs 5-8, 0.24 mg/kg CBD + 0.12 mg/kg THC oral once, 1 h) was 35.20 ng/mL and 20.10 ng/mL and 18.90 ng/mL and 69.10 ng/mL and the “CBD concentration in blood plasma” value (individual dogs 5-8, 0.24 mg/kg CBD + 0.12 mg/kg THC oral once, 1.5 h) was 33.20 ng/mL and 27.00 ng/mL and 12.70 ng/mL and 34.60 ng/mL. The “CBD concentration in blood plasma” value (individual dogs 5-8, 0.24 mg/kg CBD + 0.12 mg/kg THC oral once, 2 h) was 14.90 ng/mL and 12.60 ng/mL and 20.30 ng/mL, the “CBD concentration in blood plasma” value (individual dogs 5-8, 0.24 mg/kg CBD + 0.12 mg/kg THC oral once, 3 h) was 6.33 ng/mL and 6.79 ng/mL and 7.66 ng/mL and the “CBD concentration in blood plasma” value (individual dogs 5-8, 0.24 mg/kg CBD + 0.12 mg/kg THC oral once, 4 h) was 4.07 ng/mL and 4.40 ng/mL and 4.36 ng/mL. For the same molecule, the “CBD concentration in blood plasma” value (individual dogs 5-8, 0.24 mg/kg CBD + 0.12 mg/kg THC oral once, 6 h) was 3.40 ng/mL and 2.22 ng/mL and 5.74 ng/mL and 1.87 ng/mL, the “CBD concentration in blood plasma” value (individual dogs 5-8, 0.24 mg/kg CBD + 0.12 mg/kg THC oral once, 8 h) was 4.68 ng/mL and 1.23 ng/mL and 4.36 ng/mL and 0.91 ng/mL and the “CBD concentration in blood plasma” value (individual dogs 5-8, 0.24 mg/kg CBD + 0.12 mg/kg THC oral once, 12 h) was 0.63 ng/mL and 0.85 ng/mL and 0.72 ng/mL. The “CBD concentration in blood plasma” value (individual dogs 5-8, 0.24 mg/kg CBD + 0.12 mg/kg THC oral once, 16 h) was 0.49 ng/mL and 0.65 ng/mL and 0.47 ng/mL, the “CBD concentration in blood plasma” value (individual dogs 5-8, 0.24 mg/kg CBD + 0.12 mg/kg THC oral once, 24 h) was 0.28 ng/mL (2×) and 0.46 ng/mL and the “CBD concentration in blood plasma” value (individual dogs 5-8, 0.24 mg/kg CBD + 0.12 mg/kg THC oral once, 32 h) was 0.39 ng/mL (2×) and 0.32 ng/mL. For the same molecule, the “CBD concentration in blood plasma” value (individual dogs 5-8, 0.24 mg/kg CBD + 0.12 mg/kg THC oral once, 48 h) was 0.00 ng/mL (2×) and 0.22 ng/mL and 0.31 ng/mL, the “CBD concentration in blood plasma” value (individual dogs 5-8, 0.24 mg/kg CBD + 0.12 mg/kg THC oral once, 72 h) was 0.00 ng/mL and the “CBD in the subject's blood” value (up to 72 h after administration) was “detectable”.
